Measurements reported in patent US20060241108A1, “Substituted phenoxazines and acridones as inhibitors of AKT” (St. Jude Children's Research Hospital, priority 2005, published 2006).

What was measured:
Assay type in all cases: cell-based, human
AKT = assay: Inhibition of IGF-I stimulated AKT phosphorylation (Ser473) in Rh1 cells, Western blot; conditions: for Inhibition (phosphorylation of AKT at Ser 473): 5 μM, 1 hour, serum starved Rh1 cells, IGF-I 10 ng/ml 10 minutes, average of two experiments; for inhibition of cellular AKT activation: at the concentrations examined in this assay (1-5 μM)
Protocol: Cell lines and growth conditions. The human cell lines Rh1, Rh18, and Rh30 (ATCC Deposit # CRL 2061) have been described, e.g., by Hazelton et al. Cancer Res 1987;47:4501-4507 and Hosoi et al. Cancer Res. 1999;59:886-894. Rh1, Rh18 and Rh30 cells can each be grown in antibiotic free RPMI-1640 medium (available from BioWhittaker, Walkersville, Md.), supplemented with 10% fetal bovine serum (available from HyClone Laboratories, Logan, Utah) and 2 mM L-glutamine (available from BioWhittaker, Walkersville, Md.) at 37° C. in an atmosphere of 5% CO2. For serum free experiments, cells can be cultured in modified N2E (MN2E) medium (DMEM/F-12, 1:1 mixture) (Sigma, St. Louis, Mo.) supplemented with 1 μg/ml human holo transferrin, 30 nM sodium selenite, 20 nM progesterone, 100 μM putrescine, 30 nM vitamin E phosphate, and 50 μM ethanolamine. Cells in MN2E medium containing 5 μg/ml bovine fibronectin (available from Sigma, St. Louis, Mo.) are preferably plated, and allowed to attach overnight at 37° C. in a humidified, 5% CO2 atmosphere.
(§1) Cellular screening for inhibitors. Rh1, Rh18 and Rh30 cells can each be seeded at a density of 4×10^6/10-cm plate in serum-free medium for overnight attachment. The cells can then be exposed to 0.1% DMSO or to a test compound (for example, a phenoxazine or acridone compound) for one hour, then stimulated with Insulin-like growth factor-I (IGF-I) (10 ng/ml) for 10 minutes.
(§2) Western blot analysis. Cells are rapidly washed with ice-cold phosphate-buffered saline (PBS), placed on ice, and lysed in mammalian protein extraction reagent (M-PER; available from Pierce, Rockford, Ill.) containing one Complete™ mini protease inhibitor tablet (available from Boehringer Mannheim, Mannheim, Germany), 1 mM phenylmethylsulfonyl fluoride, 1 mM Na3VO4 and 1 mM NaF. Cellular debris is pelleted by centrifugation at 17,500×g for 10 minutes at 4° C. The protein concentration of the supernatants is measured by the bicinchoninic acid assay (e.g., using the BCA™ Protein Assay Kit, Pierce, Rockford, Ill., catalog number 23225 or 23227) using bovine serum albumin as the standard.
For the analysis of AKT, ERK-1/2, mTOR, p70S6 kinase, ribosomal protein S6 (rpS6 or S6), and glycogen synthase kinase 3 (GSK-3), equivalent amounts of protein can be separated on a 12% SDS-polyacrylamide gel (available from BioRad, Hercules, Calif.) by electrophoresis and subsequently transferred to a nitrocellulose membrane (also available from BioRad). After a 1 hour incubation in 1×TBS containing 0.05% Tween 20 and 5% blocking reagent (skim milk) (available from Upstate Biotechnology, Lake Placid, N.Y.) at room temperature, the wet nitrocellulose membranes are incubated with appropriate antibodies (available from Cell Signaling Technology, Beverly, Mass.): rabbit polyclonal antiserum specific for the phosphorylated Ser473 or Thr308 of AKT (dilution 1:1000); rabbit polyclonal antiserum specific for phosphorylated Thr202/Tyr204 of ERK-1/2 (dilution 1:1000); rabbit polyclonal antiserum specific for phosphorylated Ser2448 or Ser2481 of mTOR (dilution 1:1000); rabbit polyclonal antiserum specific for phosphorylated Thr389 of p70S6 kinase (dilution 1:4000); rabbit polyclonal antiserum specific for phosphorylated Ser235/236 of rpS6 (dilution 1:1000); or rabbit polyclonal antiserum specific for phosphorylated Ser21/9 of GSK-3α/β (dilution 1:1000). Horseradish peroxidase-conjugated goat anti-rabbit IgG antibody (dilution 1:10,000) can be used as the secondary antibody. Immunoreactive protein can be visualized using Renaissance chemiluminescence reagent (available from Life Science Products Inc., Boston, Mass.).
For these assays, Rh1 cells are seeded in serum-free medium for overnight attachment. The serum starved Rh1 cells are then exposed to 1-5 μM of a compound in Table I for 1 hour before stimulating with IGF-I (10 ng/ml) for 10 minutes. […]

[1] = tested on: mTOR (Ser2448 and Ser2481), rpS6 (Ser235/236) and p70S6 kinase (Thr389); assay: IGF-I induced phosphorylation of AKT downstream targets in Rh1 cells, Western blot; conditions: 3.5 to 5.0 μM, 1 hour, Rh1 cells serum-free, IGF-I 10 minutes
Protocol: as §1, §2
For the analysis of AKT, ERK-1/2, mTOR, p70S6 kinase, ribosomal protein S6 (rpS6 or S6), and glycogen synthase kinase 3 (GSK-3), equivalent amounts of protein can be separated on a 12% SDS-polyacrylamide gel (available from BioRad, Hercules, Calif.) by electrophoresis and subsequently transferred to a nitrocellulose membrane (also available from BioRad). […]

[2] = tested on: Rh1, Rh18 and/or Rh30 cells; assay: Determination of apoptosis, cell line not specified for the result
Description: Determination of apoptosis.
Similar experiments can be performed using compounds that are relatively poor inhibitors of AKT in vitro but, preferably, are chemically similar to the phenoxazine or other compounds tested that are effective inhibitors of AKT. For example, the apoptosis of cells in response to the phenoxazine compound 12B or 20B, which are relatively poor inhibitors of AKT in vitro, can be compared to apoptosis of cells in response to the chemically similar compounds 10B and/or 15B, which are effective AKT inhibitors. In this way, a skilled practitioner can evaluate whether apoptosis observed in response to an effective AKT inhibitor (e.g., apoptosis observed in response to compound 10B or 15B) is due to a general toxic effect rather than AKT inhibition.

O=C(CN1CCCCC1)N1c2ccccc2Oc2ccc(Cl)cc21 [Compound 19B, 10-(N-piperidinoacetyl)-2-chlorophenoxazine]
Inhibition (phosphorylation of AKT at Ser 473) (AKT): −−− (−−− <25% inhibition)

10-(4′-N-piperidinobutyl)-2-trifluoromethylphenoxazine [Compound 13C]
Inhibition (phosphorylation of AKT at Ser 473) (AKT): +++ (+++ ≈ 75% inhibition) | inhibition of cellular AKT activation (AKT): minimal inhibition

ClCCCCN1c2ccccc2Oc2ccc(Cl)cc21 [Compound 9B, 10-(4′-chlorobutyl)-2-chlorophenoxazine]
Inhibition (phosphorylation of AKT at Ser 473) (AKT): −−− (−−− <25% inhibition)

10-[4′-[(β-hydroxyethyl piperazino]butyl]-phenoxazine [Compound 15A]
Inhibition (phosphorylation of AKT at Ser 473) (AKT): +++ (+++ ≈ 75% inhibition) | inhibition of cellular AKT activation (AKT): minimal inhibition

10-[3′-[(β-hydroxyethyl)piperazino]propyl]-2-chlorophenoxazine [Compound 8B]
Inhibition (phosphorylation of AKT at Ser 473) (AKT): +++ (+++ ≈ 75% inhibition) | inhibition of IGF-I induced phosphorylation of mTOR, rpS6 and p70S6 kinase [1]: markedly inhibited

OCCN(CCO)CCCCN1c2ccccc2Oc2ccccc21 [Compound 11A, 10-[4′-[N-bis(hydroxyethyl)amino]-butyl]phenoxazine]
Inhibition (phosphorylation of AKT at Ser 473) (AKT): +++ (+++ ≈ 75% inhibition) | inhibition of cellular AKT activation (AKT): minimal inhibition

Clc1ccc2c(c1)N(CCCCN1CCOCC1)c1ccccc1O2 [Compound 12B, 10-(4′-N-morpholinobutyl)-2-chlorophenoxazine]
induction of apoptosis [2]: neither the compound 12B or 20B | Inhibition (phosphorylation of AKT at Ser 473) (AKT): −−− (−−− <25% inhibition)

OCCN(CCO)CCCCN1c2ccccc2Oc2ccc(Cl)cc21 [Compound 11B, 10-[4′-[N-bis(hydroxyethyl)amino]butyl]-2-chlorophenoxazine]
induction of apoptosis [2]: significant increase in the proportion of apoptotic cells | Inhibition (phosphorylation of AKT at Ser 473) (AKT): +++ (+++ ≈ 75% inhibition)

10-(3′-N-piperidinopropyl)-2-chlorophenoxazine [Compound 6B]
Inhibition (phosphorylation of AKT at Ser 473) (AKT): ++ (++ ≈ 50% inhibition)

O=C(CN1CCOCC1)N1c2ccccc2Oc2ccc(Cl)cc21 [Compound 18B, 10-(N-morpholinoacetyl)-2-chlorophenoxazine]
Inhibition (phosphorylation of AKT at Ser 473) (AKT): −−− (−−− <25% inhibition)

10-(4′-N-piperidinobutyl)-2-chlorophenoxazine [Compound 13B]
induction of apoptosis [2]: significant increase in the proportion of apoptotic cells | Inhibition (phosphorylation of AKT at Ser 473) (AKT): +++ (+++ ≈ 75% inhibition)

CCN(CC)CC(=O)N1c2ccccc2Oc2ccc(Cl)cc21 [Compound 17B, 10-[(N-diethylamino)acetyl]-2-chlorophenoxazine]
Inhibition (phosphorylation of AKT at Ser 473) (AKT): −−− (−−− <25% inhibition)

10-(3′-N-pyrrolidinopropyl)-2-chlorophenoxazine [Compound 7B]
Inhibition (phosphorylation of AKT at Ser 473) (AKT): +++ (+++ ≈ 75% inhibition)

c1ccc(CNCCCN2c3ccccc3Oc3ccccc32)cc1 [Compound 22A, 10-(3′-N-benzylaminopropyl)-phenoxazine]
Inhibition (phosphorylation of AKT at Ser 473) (AKT): +++ (+++ ≈ 75% inhibition) | inhibition of cellular AKT activation (AKT): minimal inhibition

Clc1ccc2c(c1)Nc1ccccc1O2 [Compound 1B, 2-chlorophenoxazine]
Inhibition (phosphorylation of AKT at Ser 473) (AKT): + (+ ≈ 25% inhibition)

Clc1ccc2c(c1)N(CCCN1CCOCC1)c1ccccc1O2 [Compound 5B, 10-(3′-N-morpholinopropyl)-2-chlorophenoxazine]
Inhibition (phosphorylation of AKT at Ser 473) (AKT): −−− (−−− <25% inhibition)

10-[[(β-hydroxyethyl) piperazino]acetyl]-2-chlorophenoxazine [Compound 21B]
Inhibition (phosphorylation of AKT at Ser 473) (AKT): −−− (−−− <25% inhibition)

OCCN(CCO)CCCN1c2ccccc2Oc2ccc(Cl)cc21 [Compound 4B, 10-[3′-[N-bis(hydroxyethyl)amino]propyl]-2-chlorophenoxazine]
Inhibition (phosphorylation of AKT at Ser 473) (AKT): ++ (++ ≈ 50% inhibition)

10-(4′-N-pyrrolidinobutyl)-phenoxazine [Compound 14A]
Inhibition (phosphorylation of AKT at Ser 473) (AKT): +++ (+++ ≈ 75% inhibition) | inhibition of cellular AKT activation (AKT): minimal inhibition

ClCCCN1c2ccccc2Oc2ccc(Cl)cc21 [Compound 2B, 10-(3′-chloropropyl)-2-chlorophenoxazine]
Inhibition (phosphorylation of AKT at Ser 473) (AKT): −−− (−−− <25% inhibition)

OCCN(CCO)CCCCN1c2ccccc2Oc2ccc(C(F)(F)F)cc21 [Compound 11C, 10-[4′-[N-bis(hydroxyethyl)amino]butyl]-2-trifluoromethyl phenoxazine]
Inhibition (phosphorylation of AKT at Ser 473) (AKT): +++ (+++ ≈ 75% inhibition) | inhibition of cellular AKT activation (AKT): minimal inhibition

10-(4′-N-pyrrolidinobutyl)-2-chlorophenoxazine [Compound 14B]
induction of apoptosis [2]: significant increase in the proportion of apoptotic cells | Inhibition (phosphorylation of AKT at Ser 473) (AKT): +++ (+++ ≈ 75% inhibition)

OCCN(CCO)CCCN1c2ccccc2Oc2ccccc21 [Compound 4A, 10-[3′-[N-bis(hydroxyethyl)amino]propyl]phenoxazine]
Inhibition (phosphorylation of AKT at Ser 473) (AKT): ++ (++ ≈ 50% inhibition) | inhibition of cellular AKT activation (AKT): minimal inhibition

CCN(CC)CCCN1c2ccccc2Oc2ccc(Cl)cc21 [Compound 3B, 10-[3′-(N-diethylamino)-propyl]-2-chlorophenoxazine]
Inhibition (phosphorylation of AKT at Ser 473) (AKT): ++ (++ ≈ 50% inhibition)

O=C(CCl)N1c2ccccc2Oc2ccc(Cl)cc21 [Compound 16B, 10-(chloroacetyl)-2-chlorophenoxazine]
Inhibition (phosphorylation of AKT at Ser 473) (AKT): −−− (−−− <25% inhibition)

FC(F)(F)c1ccc2c(c1)N(CCCN1CCOCC1)c1ccccc1O2 [Compound 5C, 10-(3′-N-morpholinopropyl)-2-trifluoromethylphenoxazine]
Inhibition (phosphorylation of AKT at Ser 473) (AKT): −−− (−−− <25% inhibition) | inhibition of cellular AKT activation (AKT): minimal inhibition

c1ccc2c(c1)Oc1ccccc1N2CCCN1CCCC1 [Compound 8A, 10-(3′-N-pyrrolidinopropyl)-phenoxazine]
Inhibition (phosphorylation of AKT at Ser 473) (AKT): ++ (++ ≈ 50% inhibition) | inhibition of cellular AKT activation (AKT): minimal inhibition
